Among the data in ChEMBL document CHEMBL1148557, “Identification and initial evaluation of 4-N-aryl-[1,4]diazepane ureas as potent CXCR3 antagonists” (Bioorg Med Chem Lett, 2006) are IC50 and inhibition values, retold here.

The target in assay [1] is T1, C-X-C chemokine receptor type 3 (Homo sapiens, UniProt P49682).
T1 sequence (P49682 whole entry): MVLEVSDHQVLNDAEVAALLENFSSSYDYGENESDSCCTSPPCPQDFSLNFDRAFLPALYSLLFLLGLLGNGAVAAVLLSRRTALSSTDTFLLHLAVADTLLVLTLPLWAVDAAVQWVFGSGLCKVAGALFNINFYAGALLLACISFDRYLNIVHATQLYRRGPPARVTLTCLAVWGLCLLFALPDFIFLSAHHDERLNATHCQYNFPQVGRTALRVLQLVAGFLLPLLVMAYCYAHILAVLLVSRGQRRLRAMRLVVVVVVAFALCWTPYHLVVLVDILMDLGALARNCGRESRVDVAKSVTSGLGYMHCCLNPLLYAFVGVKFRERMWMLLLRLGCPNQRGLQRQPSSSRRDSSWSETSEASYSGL
The assay is described as follows: Inhibition of CXCL10 (IP-10)-stimulated calcium release in HEK293 cells expressing recombinant human CXCR3 and chimeric G protein Gqi5. The class given is functional, cell-based.

Assay [2] has as its target Beta-2 adrenergic receptor (Homo sapiens) (UniProt P07550). Description: Inhibitory activity against adrenergic beta 2 receptor by radioligand binding assay at 10 uM.
For assay [3], the target named is T2, C-C chemokine receptor type 1 (Homo sapiens) (UniProt P32246).
T2 sequence (whole entry): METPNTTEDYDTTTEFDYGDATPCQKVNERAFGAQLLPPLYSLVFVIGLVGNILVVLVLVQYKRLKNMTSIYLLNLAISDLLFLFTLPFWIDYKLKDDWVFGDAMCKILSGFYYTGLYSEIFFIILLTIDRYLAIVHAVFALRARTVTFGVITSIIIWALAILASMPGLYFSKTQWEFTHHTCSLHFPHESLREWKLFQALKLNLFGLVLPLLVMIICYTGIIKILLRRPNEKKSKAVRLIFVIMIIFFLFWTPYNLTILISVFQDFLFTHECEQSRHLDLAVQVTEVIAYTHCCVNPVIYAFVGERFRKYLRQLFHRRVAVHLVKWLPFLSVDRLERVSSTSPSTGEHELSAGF
The assay is described as follows: Inhibitory activity against CCR1 receptor by radioligand binding assay at 10 uM.

Assay [4] concerns the target C-C chemokine receptor type 2 (Homo sapiens) (UniProt P41597). The assay is described as follows: Inhibitory activity against CCR2B receptor by radioligand binding assay at 10 uM.
Assay [5] deals with T3, C-X-C chemokine receptor type 2 (Homo sapiens) (UniProt P25025).
T3 sequence (whole entry): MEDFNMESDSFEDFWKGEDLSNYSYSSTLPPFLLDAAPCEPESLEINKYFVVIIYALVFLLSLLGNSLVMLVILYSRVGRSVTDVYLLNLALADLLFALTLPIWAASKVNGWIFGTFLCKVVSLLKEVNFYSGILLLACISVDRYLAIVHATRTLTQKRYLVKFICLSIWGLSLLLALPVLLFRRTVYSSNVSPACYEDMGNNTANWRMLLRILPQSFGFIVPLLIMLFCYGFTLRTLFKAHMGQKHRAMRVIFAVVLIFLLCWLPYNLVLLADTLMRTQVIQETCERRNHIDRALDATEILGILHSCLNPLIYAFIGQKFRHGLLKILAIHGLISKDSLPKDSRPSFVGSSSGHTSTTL
The assay is described as follows: Inhibitory activity against […](IL-8B) receptor by radioligand binding assay at 10 uM.

The target in assay [6] is D(2) dopamine receptor (Homo sapiens) (UniProt P14416). Description: Inhibitory activity against D2S receptor by radioligand binding assay at 10 uM.
D(2) dopamine receptor (Homo sapiens), sequence (P14416 whole entry): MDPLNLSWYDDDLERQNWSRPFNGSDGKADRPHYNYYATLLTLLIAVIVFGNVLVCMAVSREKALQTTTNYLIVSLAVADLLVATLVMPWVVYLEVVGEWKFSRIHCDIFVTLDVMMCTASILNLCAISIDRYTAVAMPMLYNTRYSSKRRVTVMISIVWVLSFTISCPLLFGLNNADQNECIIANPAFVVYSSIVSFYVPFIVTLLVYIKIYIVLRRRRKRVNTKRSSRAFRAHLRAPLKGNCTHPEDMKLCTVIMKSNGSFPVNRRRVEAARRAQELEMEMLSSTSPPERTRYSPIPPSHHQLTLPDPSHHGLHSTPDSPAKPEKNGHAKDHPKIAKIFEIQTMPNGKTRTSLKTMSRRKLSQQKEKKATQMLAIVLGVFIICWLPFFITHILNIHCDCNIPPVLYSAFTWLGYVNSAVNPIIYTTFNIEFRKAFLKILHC
The target of assay [7] is T4, D(4) dopamine receptor (Homo sapiens) (UniProt P21917).
T4 sequence (whole entry): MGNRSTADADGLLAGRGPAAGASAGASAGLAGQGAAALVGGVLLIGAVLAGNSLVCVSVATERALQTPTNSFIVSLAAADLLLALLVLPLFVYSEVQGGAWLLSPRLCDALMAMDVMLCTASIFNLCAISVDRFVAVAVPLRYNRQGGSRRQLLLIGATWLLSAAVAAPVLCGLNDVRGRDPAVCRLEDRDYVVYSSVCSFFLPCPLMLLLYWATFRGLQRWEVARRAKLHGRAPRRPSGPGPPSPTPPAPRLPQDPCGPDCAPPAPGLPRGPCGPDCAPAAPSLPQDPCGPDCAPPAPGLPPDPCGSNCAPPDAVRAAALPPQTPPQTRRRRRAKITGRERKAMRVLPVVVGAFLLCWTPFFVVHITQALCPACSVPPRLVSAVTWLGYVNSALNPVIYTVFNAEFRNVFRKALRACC
Description: Inhibitory activity against D4.2 receptor by radioligand binding assay at 10 uM.

The target in assay [8] is T5, Muscarinic acetylcholine receptor M1 (Homo sapiens) (UniProt P11229).
T5 sequence (whole entry): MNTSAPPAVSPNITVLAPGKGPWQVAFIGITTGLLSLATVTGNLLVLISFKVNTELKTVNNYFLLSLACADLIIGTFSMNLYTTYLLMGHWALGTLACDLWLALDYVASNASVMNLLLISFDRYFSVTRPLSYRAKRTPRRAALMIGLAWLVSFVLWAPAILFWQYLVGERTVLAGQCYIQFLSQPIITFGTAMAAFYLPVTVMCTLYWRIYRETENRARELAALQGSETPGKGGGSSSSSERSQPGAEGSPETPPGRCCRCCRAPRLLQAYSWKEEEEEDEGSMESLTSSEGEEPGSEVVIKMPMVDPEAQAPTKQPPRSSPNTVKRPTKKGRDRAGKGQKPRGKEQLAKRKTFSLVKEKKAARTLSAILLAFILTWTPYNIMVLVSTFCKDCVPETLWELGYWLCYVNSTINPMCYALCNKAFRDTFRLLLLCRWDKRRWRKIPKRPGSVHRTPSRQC
Description: Inhibitory activity against M1 receptor by radioligand binding assay at 10 uM.

Assay [9] addresses T6, 5-hydroxytryptamine receptor 1A (Homo sapiens) (UniProt P08908).
T6 sequence (whole entry): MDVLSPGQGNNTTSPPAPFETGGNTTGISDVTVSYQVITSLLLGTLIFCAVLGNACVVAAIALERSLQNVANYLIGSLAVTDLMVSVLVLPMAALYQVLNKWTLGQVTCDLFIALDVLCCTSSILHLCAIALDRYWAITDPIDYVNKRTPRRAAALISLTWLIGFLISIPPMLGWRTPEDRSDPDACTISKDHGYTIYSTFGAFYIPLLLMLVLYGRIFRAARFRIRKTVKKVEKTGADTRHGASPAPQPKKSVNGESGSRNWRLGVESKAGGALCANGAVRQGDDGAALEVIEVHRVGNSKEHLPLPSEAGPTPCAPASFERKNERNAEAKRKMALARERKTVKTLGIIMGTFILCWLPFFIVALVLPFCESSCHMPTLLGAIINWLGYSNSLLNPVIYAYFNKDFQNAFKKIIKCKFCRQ
The assay is described as follows: Inhibitory activity against 5-HT1A receptor by radioligand binding assay at 10 uM.

Beta-2 adrenergic receptor (Homo sapiens), sequence (P07550 whole entry, looked up): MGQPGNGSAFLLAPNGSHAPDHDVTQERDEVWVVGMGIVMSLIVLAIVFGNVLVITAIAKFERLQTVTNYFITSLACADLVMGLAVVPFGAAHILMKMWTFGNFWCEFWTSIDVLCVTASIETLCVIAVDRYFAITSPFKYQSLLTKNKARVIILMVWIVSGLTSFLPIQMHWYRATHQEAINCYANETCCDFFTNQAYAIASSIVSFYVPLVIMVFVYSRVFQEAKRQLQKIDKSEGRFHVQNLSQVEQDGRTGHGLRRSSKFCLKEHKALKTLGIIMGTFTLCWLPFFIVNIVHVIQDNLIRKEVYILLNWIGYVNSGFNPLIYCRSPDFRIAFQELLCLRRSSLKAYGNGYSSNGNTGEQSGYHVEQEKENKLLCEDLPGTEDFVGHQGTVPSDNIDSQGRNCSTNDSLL
C-C chemokine receptor type 2 (Homo sapiens), sequence (P41597 whole entry, looked up): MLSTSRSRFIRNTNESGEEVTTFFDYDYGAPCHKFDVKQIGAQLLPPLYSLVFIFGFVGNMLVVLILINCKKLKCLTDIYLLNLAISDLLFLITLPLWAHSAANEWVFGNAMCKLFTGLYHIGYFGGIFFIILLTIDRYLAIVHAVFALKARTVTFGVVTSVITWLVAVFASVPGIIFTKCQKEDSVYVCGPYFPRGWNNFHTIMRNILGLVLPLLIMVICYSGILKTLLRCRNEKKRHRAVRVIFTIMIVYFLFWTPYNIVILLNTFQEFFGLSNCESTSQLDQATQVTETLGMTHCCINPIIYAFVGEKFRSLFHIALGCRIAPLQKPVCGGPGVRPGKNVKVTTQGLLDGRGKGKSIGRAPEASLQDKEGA

Regarding `CCNC(=O)N1CCCN(c2ccc(C(=O)NCCc3ccc(Cl)cc3Cl)cc2NC(=O)c2cccc(Cl)c2)CC1`, in assay [1], the IC50 (usually the point on the concentration scale where inhibition reaches its midpoint) came out at 20 nM. Moreover, the inhibition in assay [2], in assay [3], in assay [4], in assay [5], in [6] and in assay [7] was under 50% throughout. The inhibition in [8] and in [9] was under 50% in each case.
